Patent publication US10392383B2, “3-(1H-benzo[d]imidazol-2-yl)-1H-pyrazolo[4,3-b]pyridines and therapeutic uses thereof” (Samumed, LLC, priority 2015, dated 2019)

Tests used:
SW480 colon cancer cells = assay: Cell viability assay (CellTiter-Blue) in SW480 cells; assay type: cell-based; details: Homo sapiens, 96 h, four days; for inhibition at 10 µM: read-out: percent inhibition at 10 μM (given for EC50 of >10 μM); for EC50: CellTiter-Blue, 10 μM to 0.0045 μM
Protocol: Representative compounds were screened using the following assay procedure to assess the effect on cell viability as described below.
Each compound was dissolved in DMSO as a 10 mM stock and used to prepare compound source plates. Serial dilution (1:3, 8-point dose-response curves from 10 μM to 0.0045 μM) and compound transfer was performed using the ECHO 550 (Labcyte, Sunnyvale, Calif.) into 96-well clear bottom, black-walled plates (Corning-Costar).
Approximately 2×10^3 SW480 colon cancer cells were seeded into each well and allowed to incubate in the presence or absence of compound for four days at 37° C./5% CO2. Eight replicates of DMSO-treated cells served as controls and cells treated with compound were performed in duplicate.
After incubation, 20 μL of CellTiter-Blue (Promega) was added to each well allowed to incubate for approximately 3 hours. This reagent was a buffered solution which contains resazurin, metabolically active cells were able to reduce rezarurin (blue) into resorufin (pink) which was highly fluorescent. This measured fluorescence was used as a readout for cell viability.
After incubation, the plates were read at Ex 560 nm Em 590 nm (Cytation 3, BioTek). Dose-response curves were generated and EC50 concentration values were calculated using non-linear regression curve fit in the GraphPad Prism (San Diego, Calif.) or Dotmatics' Studies Software (Bishops Stortford, UK). For EC50 of >10 μM, the percent inhibition at 10 μM is provided.

IL-6 (THP-1 cells) = assay: IL-6 inhibition in LPS-stimulated THP-1 monocytes (HTRF); assay type: cell-based; details: Homo sapiens, IL-6 HTRF; for EC50: 500 ng/mL LPS, Table 6; for inhibition at 10 µM: LPS, Table 6, read-out: percent inhibition at 10 μM (given in parentheses for EC50 >10 μM)
Protocol: Human Monocyte Cell Culture: Human monocyte cell line (THP-1 cells; Catalog # TIB-202, ATCC, Manassas, Va.) were cultured in Roswell Park Memorial Institute (RPMI) 1640 Medium (Catalog #21870-100, Buffalo, N.Y.) with 1% L-glutamine, 1% HEPES, 1% Sodium Pyruvate, 2% Sodium Bicarbonate supplemented with 100 units/mL penicillin, 50 μg/mL streptomycin, 2-mercaptoethanol (0.05 mM) [basal medium] and 10% fetal bovine serum (Catalog #16140089, Life Technologies, Carlsbad, Calif.) at 37° C. and 5% CO2.
Compound Screening: THP-1 cells were cultured in basal media with 1% FBS for 24 hours before the start of the assay. Each compound was dissolved in DMSO as a 10 mM stock and used to prepare compound source plates. Serial dilution (1:3, 10-point dose-response curves starting from 10 μM) and compound transfer was performed using the ECHO 550 (Labcyte, Sunnyvale, Calif.) into 384-well white low volume assay plates (Greiner Bio-One) with appropriate DMSO backfill for a final DMSO concentration of 0.1%. THP-1 cells were plated at 5000 cells/well in the 384-well plates and incubated at 37° C. for 2 h. 500 ng/mL of LPS was added after 2 hours and cells were incubated for another 22 hours at 37° C. Plates were spun in a centrifuge for 1 minute at […] and a mixture of anti-IL6 XL665, and anti-IL6 Cryptate diluted in reconstitution buffer (Cisbio Inc.) was added to each well. Following incubation for 3 hrs at room temperature, Homogeneous Time-Resolved Fluorescence (HTRF) was measured using the Envision (Perkin Elmer) at 665 nm and […]. The ratio of fluorescence at 665 nm to 620 nm was used as a readout for IL6 quantification. All samples were processed in duplicate. Readings were normalized to DMSO treated cells and normalized activities were utilized for EC50 calculations using the dose-response log (inhibitor) vs. response-variable slope (four parameters) nonlinear regression feature available in GraphPad Prism 5.0 (or Dotmatics). For EC50 of >10 μM, the percent inhibition at 10 μM is provided.

EC50 (SW480 colon cancer cells) | EC50 (IL-6 (THP-1 cells)) | Compound | inhibition at 10 µM (SW480 colon cancer cells) | inhibition at 10 µM (IL-6 (THP-1 cells))
> 10 µM | 0.38 µM | Cc1cn(-c2cccc3[nH]c(-c4n[nH]c5ccc(-c6cncc(N7CC(N)C7)n6)nc45)nc23)cn1 [Compound 622, 1-(6-(3-(4-(4-Methyl-1H-imidazol-1-yl)-1H-benzo[d]imidazol-2-yl)-1H-pyrazolo[4,3-b]pyridin-5-yl)pyrazin-2-yl)azetidin-3-amine] | 17.8% | 
> 10 µM | 1 µM | Cc1cn(-c2cccc3[nH]c(-c4n[nH]c5ccc(-c6cncc(OCCN(C)C)c6)nc45)nc23)cn1 [Compound 627, N,N-Dimethyl-2-((5-(3-(4-(4-methyl-1H-imidazol-1-yl)-1H-benzo[d]imidazol-2-yl)-1H-pyrazolo[4,3-b]pyridin-5-yl)pyridin-3-yl)oxy)ethan-1-amine] | 14.1% | 
9.1 µM | 0.0695 µM | CN1CCN(c2cccc3[nH]c(-c4n[nH]c5ccc(-c6cnccn6)nc45)nc23)CC1 [Compound 648, 3-(4-(4-Methylpiperazin-1-yl)-1H-benzo[d]imidazol-2-yl)-5-(pyrazin-2-yl)-1H-pyrazolo[4,3-b]pyridine] |  | 
> 10 µM | > 10 µM | c1ccc2[nH]c(-c3n[nH]c4ccc(-c5cn[nH]c5)nc34)nc2c1 [Compound 651, 3-(1H-Benzo[d]imidazol-2-yl)-5-(1H-pyrazol-4-yl)-1H-pyrazolo[4,3-b]pyridine] | 33.9% | 0%
> 10 µM | 1.4 µM | c1ccc2[nH]c(-c3n[nH]c4ccc(-c5cncc(OC6CCNCC6)c5)nc34)nc2c1 [Compound 656, 3-(1H-Benzo[d]imidazol-2-yl)-5-(5-(piperidin-4-yloxy)pyridin-3-yl)-1H-pyrazolo[4,3-b]pyridine] | 20.8% | 
> 10 µM | > 10 µM | Oc1cncc(-c2ccc3[nH]nc(-c4nc5ccccc5[nH]4)c3n2)c1 [Compound 661, 5-(3-(1H-Benzo[d]imidazol-2-yl)-1H-pyrazolo[4,3-b]pyridin-5-yl)pyridin-3-ol] | 29.2% | 50.9%
> 10 µM | > 10 µM | O=C(CC1CCNCC1)Nc1cncc(-c2ccc3[nH]nc(-c4nc5c(-c6ccsc6)cccc5[nH]4)c3n2)c1 [Compound 673, 2-(Piperidin-4-yl)-N-(5-(3-(4-(thiophen-3-yl)-1H-benzo[d]imidazol-2-yl)-1H-pyrazolo[4,3-b]pyridin-5-yl)pyridin-3-yl)acetamide] | 4.3% | 24.8%
0.635 µM | 9.37 µM | Cc1ncc(-c2ccc3[nH]nc(-c4nc5c(-c6ccoc6)cccc5[nH]4)c3n2)n1C [Compound 685, 5-(1,2-Dimethyl-1H-imidazol-5-yl)-3-(4-(furan-3-yl)-1H-benzo[d]imidazol-2-yl)-1H-pyrazolo[4,3-b]pyridine] |  | 
3.85 µM | 0.0939 µM | c1cc(-c2ccoc2)c2nc(-c3n[nH]c4ccc(-c5cncc(OCCN6CCCC6)c5)nc34)[nH]c2c1 [Compound 690, 3-(4-(Furan-3-yl)-1H-benzo[d]imidazol-2-yl)-5-(5-(2-(pyrrolidin-1-yl)ethoxy)pyridin-3-yl)-1H-pyrazolo[4,3-b]pyridine] |  | 
2.1 µM | > 10 µM | COc1cncc(-c2ccc3[nH]nc(-c4nc5c(-c6ccoc6)cccc5[nH]4)c3n2)c1 [Compound 692, 3-(4-(Furan-3-yl)-1H-benzo[d]imidazol-2-yl)-5-(5-methoxypyridin-3-yl)-1H-pyrazolo[4,3-b]pyridine] |  | 53.2%
> 10 µM | > 10 µM | Cn1cc(-c2ccc3[nH]nc(-c4nc5c(-c6cccs6)cccc5[nH]4)c3n2)cn1 [Compound 700, 5-(1-Methyl-1H-pyrazol-4-yl)-3-(4-(thiophen-2-yl)-1H-benzo[d]imidazol-2-yl)-1H-pyrazolo[4,3-b]pyridine] | 27.3% | 27.4%
> 10 µM | > 10 µM | Cc1ccc(-c2cccc3[nH]c(-c4n[nH]c5ccc(-c6cncc(OC7CCCCC7)c6)nc45)nc23)s1 [Compound 735, 5-(5-(Cyclohexyloxy)pyridin-3-yl)-3-(4-(5-methylthiophen-2-yl)-1H-benzo [d]imidazol-2-yl)-1H-pyrazolo[4,3-b]pyridine] | 32.3% | 38.8%
1.41 µM | 3.15 µM | Cn1cc(-c2ccc3[nH]nc(-c4nc5c(-c6cc(F)cc(CNS(C)(=O)=O)c6)cccc5[nH]4)c3n2)cn1 [Compound 764, N-(3-Fluoro-5-(2-(5-(1-methyl-1H-pyrazol-4-yl)-1H-pyrazolo[4,3-b]pyridin-3-yl)-1H-benzo[d]imidazol-4-yl)benzyl)methanesulfonamide] |  | 
> 10 µM | > 10 µM | CS(=O)(=O)NCc1cc(F)cc(-c2cccc3[nH]c(-c4n[nH]c5ccc(-c6cncc(NC(=O)CC7CCNCC7)c6)nc45)nc23)c1 [Compound 769, N-(5-(3-(4-(3-Fluoro-5-(methylsulfonamidomethyl)phenyl)-1H-benzo[d]imidazol-2-yl)-1H-pyrazolo[4,3-b]pyridin-5-yl)pyridin-3-yl)-2-(piperidin-4-yl)acetamide] | 0% | 25.4%
0.549 µM | 0.164 µM | Cc1ncc(-c2ccc3[nH]nc(-c4nc5c(-c6cc(F)cc(NCCN(C)C)c6)cccc5[nH]4)c3n2)n1C [Compound 781, N^1-(3-(2-(5-(1,2-Dimethyl-1H-imidazol-5-yl)-1H-pyrazolo[4,3-b]pyridin-3-yl)-1H-benzo[d]imidazol-4-yl)-5-fluorophenyl)-N^2,N^2-dimethylethane-1,2-diamine] |  | 
3.56 µM | 2.07 µM | CN(C)CCNc1cc(F)cc(-c2cccc3[nH]c(-c4n[nH]c5ccc(-c6cncc(OCCN7CCCC7)c6)nc45)nc23)c1 [Compound 786, N^1-(3-Fluoro-5-(2-(5-(5-(2-(pyrrolidin-1-yl)ethoxy)pyridin-3-yl)-1H-pyrazolo[4,3-b]pyridin-3-yl)-1H-benzo[d]imidazol-4-yl)phenyl)-N^2,N^2-dimethylethane-1,2-diamine] |  | 
0.722 µM | 3.32 µM | CN(C)CCNc1cc(F)cc(-c2cccc3[nH]c(-c4n[nH]c5ccc(-c6cncc(OCc7ccccc7)c6)nc45)nc23)c1 [Compound 790, N^1-(3-(2-(5-(5-(Benzyloxy)pyridin-3-yl)-1H-pyrazolo[4,3-b]pyridin-3-yl)-1H-benzo[d]imidazol-4-yl)-5-fluorophenyl)-N^2,N^2-dimethylethane-1,2-diamine] |  | 
4.23 µM | 0.686 µM | CN(C)CCNc1cc(F)cc(-c2cccc3[nH]c(-c4n[nH]c5ccc(-c6cnccn6)nc45)nc23)c1 [Compound 792, N^1-(3-Fluoro-5-(2-(5-(pyrazin-2-yl)-1H-pyrazolo[4,3-b]pyridin-3-yl)-1H-benzo[d]imidazol-4-yl)phenyl)-N^2,N^2-dimethylethane-1,2-diamine] |  | 

Compound | EC50 (SW480 colon cancer cells) | EC50 (IL-6 (THP-1 cells)) | inhibition at 10 µM (SW480 colon cancer cells) | inhibition at 10 µM (IL-6 (THP-1 cells))
Cc1cn(-c2cccc3[nH]c(-c4n[nH]c5ccc(C6=CCNCC6)nc45)nc23)cn1 [Compound 618, 3-(4-(4-Methyl-1H-imidazol-1-yl)-1H-benzo[d]imidazol-2-yl)-5-(1,2,3,6-tetrahydropyridin-4-yl)-1H-pyrazolo[4,3-b]pyridine] | > 10 µM | > 10 µM | 7.4% | 42%
Cc1ccc(-c2cccc3[nH]c(-c4n[nH]c5ccc(C6=CCNCC6)nc45)nc23)s1 [Compound 730, 3-(4-(5-Methylthiophen-2-yl)-1H-benzo[d]imidazol-2-yl)-5-(1,2,3,6-tetrahydropyridin-4-yl)-1H-pyrazolo[4,3-b]pyridine] | 0.642 µM | 9.16 µM |  | 
